Measured values reported in US12336991B2, “Factor XIIA inhibitors” (UNIVERSITY OF LEEDS, priority 2018, dated 2025).

Key:
Assay type in all cases: biochemical
FXIIa = molecular target: T1, FXIIa (Homo sapiens, UniProt P00748); assay: Determination of Factor XIIa inhibition, chromogenic substrate S-2302 assay; conditions: human FXIIa alpha
T1 sequence (P00748 373-615 limits assumed): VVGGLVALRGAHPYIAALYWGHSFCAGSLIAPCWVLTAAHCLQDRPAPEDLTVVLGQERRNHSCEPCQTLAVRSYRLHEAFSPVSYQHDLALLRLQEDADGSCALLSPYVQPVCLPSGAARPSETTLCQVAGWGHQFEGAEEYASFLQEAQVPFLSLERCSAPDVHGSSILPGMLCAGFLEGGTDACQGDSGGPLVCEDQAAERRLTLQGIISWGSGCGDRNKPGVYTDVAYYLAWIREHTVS
T1 sequence (P00748 20-372 partner limits assumed): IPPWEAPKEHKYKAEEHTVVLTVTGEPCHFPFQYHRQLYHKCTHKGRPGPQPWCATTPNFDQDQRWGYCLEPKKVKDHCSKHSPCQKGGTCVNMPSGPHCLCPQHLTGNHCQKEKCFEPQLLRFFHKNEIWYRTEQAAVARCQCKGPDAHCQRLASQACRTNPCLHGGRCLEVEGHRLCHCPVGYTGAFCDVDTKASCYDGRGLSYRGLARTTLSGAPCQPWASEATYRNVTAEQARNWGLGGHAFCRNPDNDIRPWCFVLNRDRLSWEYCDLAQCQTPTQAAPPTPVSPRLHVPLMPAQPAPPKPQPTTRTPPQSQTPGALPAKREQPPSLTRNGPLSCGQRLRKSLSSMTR
How it was run: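 FXIIa (10 nM) preincubated with compound 10 min at 37° C. in 50 mM Tris, 137 mM NaCl pH 7.4, 5% DMSO, top concentration 500 μM, then S-2302 added ([…]). Absorbance at 405 nm read kinetically for 3 h; IC50 from initial rates, converted to Ki by Cheng-Prusoff.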

FXa = FXa (Homo sapiens, UniProt P00742); assay: Determination of selectivity: FXa inhibition, chromogenic substrate S2765 assay; conditions: fold selectivity for FXIIa over FXa
FXa, sequence (P00742 235-488 limits assumed): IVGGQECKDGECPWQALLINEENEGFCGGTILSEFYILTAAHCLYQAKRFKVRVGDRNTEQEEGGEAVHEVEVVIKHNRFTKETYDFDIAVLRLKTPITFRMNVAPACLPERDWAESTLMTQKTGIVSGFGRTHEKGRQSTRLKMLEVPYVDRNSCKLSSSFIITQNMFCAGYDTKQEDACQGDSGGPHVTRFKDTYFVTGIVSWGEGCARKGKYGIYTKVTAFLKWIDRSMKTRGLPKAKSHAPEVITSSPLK
FXa, sequence (P00742 41-179 partner limits assumed): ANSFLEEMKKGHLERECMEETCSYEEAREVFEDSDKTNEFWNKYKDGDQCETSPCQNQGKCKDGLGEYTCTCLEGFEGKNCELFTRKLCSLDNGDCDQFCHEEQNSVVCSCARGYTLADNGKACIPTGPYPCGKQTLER
How it was run: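 Human FXa (5 nM) preincubated with compound (top 500 μM, 5% DMSO) 10 min at 37 °C in 50 mM Tris, 137 mM NaCl pH 7.4, then S2765 ([…]) added; A405 kinetics over 3 h at 37 °C. IC50 from initial rates, converted to Ki via Cheng-Prusoff.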

thrombin = molecular target: T2, thrombin (Homo sapiens, UniProt P00734); assay: Determination of selectivity: thrombin inhibition, chromogenic substrate GPR assay; conditions: fold selectivity for FXIIa over thrombin
T2 construct: FXa (5 nM) and thrombin (5 nM)
How it was run: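 Thrombin (5 nM) preincubated with compound 10 min at 37 °C in 50 mM Tris, 137 mM NaCl, pH 7.4, 5% DMSO, then GPR substrate ([…]) added. Absorbance at 405 nm read kinetically for 3 h; IC50 from initial rates, converted to Ki via Ki=IC50/(1+[S]/Km).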

| SMILES | Ki (FXIIa) | FXa (human)/FXIIa alpha (human) (FXa) | Thrombin (human)/FXIIa alpha (human) (thrombin) |
| --- | --- | --- | --- |
| COc1ccc(C[C@@H]2C[C@@H](C(=O)NCc3cc4cnccc4[nH]3)N(C(=O)[C@H]3C[C@@H](C(=O)N4CCCC4(C)C)CCN3)C2)cc1 [Example M00967] | < 200 nM | ∘∘∘ | +++ (fold selectivity values greater than 100) |
| COc1ccc(CC2C[C@@H](C(=O)NCc3ccc4c(c3)nnn4C)N(C(=O)[C@H]3C[C@@H](c4ccccc4)CN3)C2)cc1OC (stereo partly drawn) [Example M05348] | 200 to 2000 nM | ∘∘∘ | +++ (fold selectivity values greater than 100) |
| Cn1nnc2cc(CNC(=O)[C@@H]3C[C@@H](Cc4cccc(Cl)c4)CN3C(=O)[C@H]3C[C@@H](c4ccccc4)CN3)ccc21 [Example M05335] | > 2000 nM | ∘∘ | ++ (fold selectivity value of 10 to 100) |
| COc1ccc(C[C@@H]2C[C@@H](C(=O)NCc3nc4cnccc4[nH]3)N(C(=O)[C@H](N)CCC(=O)N3CCCC3)C2)cc1 [Example M00973] | > 2000 nM | ∘∘∘ | +++ (fold selectivity values greater than 100) |
| COc1ccc(C[C@@H]2C[C@@H](C(=O)NCc3cc4cnccc4[nH]3)N(C(=O)C3NCCc4cc(Cl)ccc43)C2)cc1 (stereo partly drawn) [Example M00965] | < 200 nM | ∘∘∘ | +++ (fold selectivity values greater than 100) |
| COc1ccc(C[C@@H]2C[C@@H](C(=O)NCc3ccc4c(c3)nnn4C)N(C(=O)[C@H]3CC(c4cccnc4C)CN3)C2)cc1 (stereo partly drawn) [Example M05406] | 200 to 2000 nM | ∘∘∘ | +++ (fold selectivity values greater than 100) |
| COc1ccc(C[C@@H]2C[C@@H](C(=O)NCc3ccc4c(c3)nnn4C)N(C(=O)[C@H]3CC(c4cccnc4C(F)(F)F)CN3)C2)cc1 (stereo partly drawn) [Example M05421] | 200 to 2000 nM | ∘∘∘ | +++ (fold selectivity values greater than 100) |
| COc1ccc2c(c1)CCNC2C(=O)N1C[C@H](Cc2ccncc2)C[C@H]1C(=O)NCc1ccc2c(c1)nnn2C (stereo partly drawn) [Example M05463] | > 2000 nM | ∘∘ | ++ (fold selectivity value of 10 to 100) |
| COc1ccc(C[C@@H]2C[C@@H](C(=O)NCc3ccc4c(c3)nnn4C)N(C(=O)[C@H](N)CCC(=O)N3CCNCC3)C2)cc1 [Example M05393] | 200 to 2000 nM | ∘∘∘ | +++ (fold selectivity values greater than 100) |
| Cn1ncc2cc(CNC(=O)[C@@H]3C[C@@H](Cc4ccncc4)CN3C(=O)[C@H](N)CCC(=O)N3CCCC3)ccc21 [Example M05244] | < 200 nM | ∘∘∘ | +++ (fold selectivity values greater than 100) |
| Cn1nnc2cc(CNC(=O)[C@@H]3C[C@@H](Cc4ccc5c(c4)OCO5)CN3C(=O)[C@H]3C[C@@H](c4ccccc4)CN3)ccc21 [Example M05390] | 200 to 2000 nM | ∘∘∘ | ++ (fold selectivity value of 10 to 100) |
| Cn1nnc2cc(CNC(=O)[C@@H]3CC(Cc4ccnc(F)c4)CN3C(=O)[C@H](N)CCC(=O)N3CCCC3)ccc21 (stereo partly drawn) [Example M05314] | 200 to 2000 nM | ∘∘∘ | ++ (fold selectivity value of 10 to 100) |
| NCc1ccc(CNC(=O)[C@@H]2C[C@H](C3CCCCC3)CN2C(=O)[C@H](N)CCc2ccccc2)cc1 [Example M05076, (2S,4R)-1-((R)-2-Amino-4-phenyl-butyryl)-4-cyclohexyl-pyrrolidine-2-carboxylic acid 4-aminomethyl-benzylamide] | > 2000 nM | ∘∘ | ++ (fold selectivity value of 10 to 100) |
| Cn1nnc2cc(CNC(=O)[C@@H]3C[C@@H](Cc4ccc(F)cc4)CN3C(=O)C3C[C@@H](c4ccccc4)CN3)ccc21 (stereo partly drawn) [Example M05324] | > 2000 nM | ∘∘ | ++ (fold selectivity value of 10 to 100) |
| Cn1nnc2cc(CNC(=O)[C@@H]3C[C@H](NCc4ccc(Cl)cc4)CN3C(=O)[C@H](N)CCc3ccccc3)ccc21 [Example M05160] | > 2000 nM | ∘∘ | ++ (fold selectivity value of 10 to 100) |
| CN(C)[C@H](CCC(=O)N1CCCC1)C(=O)N1C[C@H](Cc2cccnc2)C[C@H]1C(=O)NCc1ccc2c(c1)nnn2C [Example M05222] | 200 to 2000 nM | ∘∘∘ | +++ (fold selectivity values greater than 100) |
| COc1ccc(C[C@@H]2C[C@@H](C(=O)NCc3cc4cnccc4[nH]3)N(C(=O)[C@H]3C[C@@H](c4cnn(C)c4)CN3)C2)cc1 [Example M00959] | < 200 nM | ∘∘∘ | +++ (fold selectivity values greater than 100) |
| Cn1nnc2cc(CNC(=O)[C@@H]3C[C@@H](Cc4cccc(Cl)c4)CN3C(=O)[C@H](N)CCC(=O)N3CCCC3)ccc21 [Example M05190] | < 200 nM | ∘∘∘ | +++ (fold selectivity values greater than 100) |
| COc1ccc(C[C@@H]2C[C@@H](C(=O)NCc3ccc4c(c3)nnn4C)N(C(=O)[C@H]3CC(c4c(C)noc4C)CN3)C2)cc1 (stereo partly drawn) [Example M05409] | > 2000 nM | ∘∘ | + (fold selectivity values less than 10) |
| COc1cc(CNC(=O)[C@@H]2CCCN2C(=O)[C@H](N)CCc2ccccc2)cnc1CN [Example M05053] | > 2000 nM | ∘∘ | + (fold selectivity values less than 10) |
| COc1cncc(CC2C[C@@H](C(=O)NCc3ccc4c(c3)nnn4C)N(C(=O)[C@H](N)CCC(=O)N3CCCC3)C2)c1 (stereo partly drawn) [Example M05304] | 200 to 2000 nM | ∘∘∘ | +++ (fold selectivity values greater than 100) |
| COc1ccc(C[C@@H]2C[C@@H](C(=O)NCc3ccc4c(c3)nnn4C)N(C(=O)[C@H](N)CCc3ccccc3)C2)cc1 [Example M05302] | 200 to 2000 nM | ∘∘∘ | +++ (fold selectivity values greater than 100) |
